Measurements from publication PMC7737769, “Pharmacological inhibition of syntenin PDZ2 domain impairs breast cancer cell activities and exosome loading with syndecan and EpCAM cargo” (Journal of Extracellular Vesicles, 2020).
Values joined by “and” are separate entries in the source; they are usually repeats but may differ in a detail not shown here. Equal entries are not always repeated. “Also recorded” adds a separate entry of the source. Where two headings read alike, the source gives them in different places.

What was measured:
[1] = tested on: MCF‐7 cells; experiment: Mammosphere formation assay, MCF-7; type: cell-based; details: wild-type MCF-7, 50 & 100 µM
Procedure: MCF‐7 and MCF‐7 SyntKO cells were treated with increasing concentrations of compounds C58, SyntOFF (50‐100µM) or DMSO 0.2% as control. After 24 h, cells were trypsinized, re‐suspended in normal growth media and washed three times in PBS to remove serum. Cell concentration was determined using the LUNA-FL Automated Fluorescence Cell Counter (Logos Biosystem) and cells were then seeded at 1000 cells/ml in 6‐well Ultra low Adherence plates (Corning Inc., Corning, NY) in MEBM medium (Lonza) supplemented with 5 µg/ml insulin (Sigma‐Aldrich), 20 ng/ml recombinant epidermal growth factor (Sigma‐Aldrich), 1X of B27 supplement (Invitrogen, Carlsbad, CA, USA), 0.5 µg/ml hydrocortisone (Sigma‐Aldrich), 1X of β‐mercaptoethanol and 1% penicillin/streptomycin (Gibco). Fresh medium was added into the plates every 3–4 days. The number of spheres (diameter > 50 µm) was evaluated under microscope on days 7–10. Sphere formation was calculated as the number of spheres divided by the original number of cells seeded and normalized to control.

[2] = tested on: MCF‐7 cells; experiment: Cancer cell viability (Annexin V/7-AAD flow cytometry), MCF-7; type: cell-based; details: MCF-7, concentrations up to 100 µM, 48 h
Procedure: The effects of the compounds C58 and SyntOFF were tested both on MCF‐7 and MCF‐7 SyntKO cells. Briefly, the cells were treated with increasing concentrations of the compounds for 48 h and early/late apoptosis was measured by using the FITC Annexin V apoptosis detection kit with 7‐AAD (Biolegend, San Diego, CA, USA) according to the manufacturer. Annexin V positive but 7‐AAD negative (early apoptotic cells) and Annexin V positive and 7‐AAD positive (late stage apoptosis) was determined by using FACS LSRII flow cytometer (BD Biosciences) and data were analysed with Flowjo software (Tree Star).

[3] = biological target: T1, syntenin‐PDZ tandem plus C‐terminal domain (Homo sapiens, UniProt O00560); experiment: Surface plasmon resonance (BIAcore), syntenin PDZ tandem plus C-terminal domain; type: binding
T1 construct: made in house; host or cells: Biotin XCell F' E. coli cells
T1 sequence (O00560 107-298): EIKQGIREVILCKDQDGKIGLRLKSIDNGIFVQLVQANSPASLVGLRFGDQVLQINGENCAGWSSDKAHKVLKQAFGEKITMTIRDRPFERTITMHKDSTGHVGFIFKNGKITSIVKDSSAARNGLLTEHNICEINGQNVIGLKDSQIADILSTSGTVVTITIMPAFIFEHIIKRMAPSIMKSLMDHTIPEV
Procedure: All SPR experiments were conducted with a BIAcore T200 instrument (GE Healthcare), at 25°C. A total of 8000 resonance units (RU) of biotinylated ligands (N‐terminal 6xHis tagged biotinylated syntenin tandem, syntenin tandem with C terminus, GRASP55 tandem or GST as control) were immobilized on a streptavidin‐sensor chip (GE Healthcare). Analytes (C58 and SyntOFF compounds) were perfused at 30 µl per min in running buffer (10 mM HEPES pH 7.4, 150 mM NaCl, 0.005% Tween20) at different concentrations. The reference channel was N‐terminal 6xHis tagged biotinylated GST protein. The injection time was 240 s, long enough for the sensorgrams to reach equilibrium, and the dissociation time was 240 s. To carry out these SPR experiments, we employed the method known as ‘single‐cycle kinetics’ described in 2006 by Karlsson and co‐workers (Karlsson, Katsamba, Nordin, Pol, & Myszka, 2006). It consists in injecting the analyte at increasing concentrations, without regeneration steps between each sample injection to avoid that folded‐proteins can be damaged after regeneration steps. Equilibrium dissociation constants (KD) were calculated by fitting the data to a simple Langmuir binding isotherm using GraphPad Prism. For determination of the apparent KD, signals obtained at equilibrium were plotted as a function of compound concentration. […]

[4] = biological target: T2, syntenin‐SDC2 complex (GST-SyntFL / SDC2 peptide) (Homo sapiens, UniProt O00560); experiment: HTRF assay, syntenin-SDC2 interaction; type: biochemical; details: for IC50: HTRF dose-response, read-out: IC50 for syntenin‐SDC2 complexes; for inhibition at 400 µM: HTRF
T2 construct: residues 1–298 or syntenin full‐length (FL) for HTRF assays; made in house; host or cells: E. coli ER2566
T2 sequence (O00560 1-298): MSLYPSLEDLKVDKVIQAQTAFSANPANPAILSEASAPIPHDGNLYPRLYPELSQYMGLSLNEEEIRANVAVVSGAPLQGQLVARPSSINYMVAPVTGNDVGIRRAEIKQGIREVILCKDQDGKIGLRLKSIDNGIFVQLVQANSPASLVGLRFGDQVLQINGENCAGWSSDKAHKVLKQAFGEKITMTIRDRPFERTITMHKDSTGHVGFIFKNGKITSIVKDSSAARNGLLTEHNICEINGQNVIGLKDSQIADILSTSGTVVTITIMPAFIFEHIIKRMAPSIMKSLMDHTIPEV

SMILES | mammosphere formation [1] | toxicity (cell viability) [2] | Kd ([3]; compound in PBS, read-out: apparent KD, syntenin‐PDZ tandem plus C‐terminal domain) | ligand efficiency [4] | GST SyntFL Syndecan 2 (signal ratio) ([4]; 400µM compound, Figure 1c) | IC50 [4] | inhibition of syntenin PDZ interactions ([4]; HTRF primary screen, 400µM, syntenin-SDC2 and syntenin-Frizzled7) | inhibition at 400 µM ([4]; syntenin-SDC2 and syntenin-Frizzled 7 complexes, read-out: extent of inhibition of Syntenin‐PDZ complexes) | Kd ([3]; DMSO as vehicle, read-out: KD, syntenin‐PDZ tandem plus C‐terminal domain) | fold improvement of the affinity as compared to C58 ([4]; HTRF IC50) | inhibition at 400 µM ([4]; read-out: inhibition of the syntenin‐SDC2 interaction)
CC(C)[C@H](NC(=O)CSc1ccc(Cl)cc1)C(=O)O [Compound C58] | decreases | not toxic; also recorded: non‐toxic | 886 µM | 0.24 kcal/mol/atom | 0.36 | 350 µM and 349 µM | inhibit | 60% |  |  | 
CC(C)[C@H](NC(=O)CCSc1ccc(Cl)cc1)C(=O)O [SyntOFF, (S)‐2‐(3‐(4‐chlorophenylthio)propanamido)‐3‐methylbutanoic acid] | decreases | non‐toxic |  | 0.30 kcal/mol/atom |  | 37 µM |  |  | 130 µM | > 10 fold and 10 fold | 96%
